Laboratory results taken from ChEMBL document CHEMBL6182931, “Chemical Evolution of Aplithianine Class of Serine/Threonine Kinase Inhibitors” (J Med Chem, 2025).
The source made the active and inactive calls. No cut-off for these calls is given here.

Columns and labels:
Homo sapiens [1] = species: Homo sapiens; test: Induction of thermal stabilization of His-tagged DNAJB1-PKAcalpha (unknown origin) incubated for 15 min by differential scanning fluorometric analysis
[2] = Inhibition of DNAJB1-PKAcalpha (unknown origin) using biotinylated-peptide substrate CREB incubated for 45 mins in presence of ATP and cAMP by ELISA; parameters: species or system Homo sapiens
[3] = target: Dual specificity tyrosine-phosphorylation-regulated kinase 1B (Homo sapiens) (UniProt Q9Y463); test: Inhibition of human DYRK1B at 50 nM in presence of ATP by radiometric Hotspot kinase assay relative to control
NCI/ADR-RES = test: Antiproliferative activity against human NCI/ADR-RES cells assessed as growth inhibition; type: functional, cell-based
[4] = target: T1, Dual specificity tyrosine-phosphorylation-regulated kinase 3 (Homo sapiens) (UniProt O43781); test: Inhibition of human DYRK3 at 50 nM in presence of ATP by radiometric Hotspot kinase assay relative to control
T1 sequence (whole entry): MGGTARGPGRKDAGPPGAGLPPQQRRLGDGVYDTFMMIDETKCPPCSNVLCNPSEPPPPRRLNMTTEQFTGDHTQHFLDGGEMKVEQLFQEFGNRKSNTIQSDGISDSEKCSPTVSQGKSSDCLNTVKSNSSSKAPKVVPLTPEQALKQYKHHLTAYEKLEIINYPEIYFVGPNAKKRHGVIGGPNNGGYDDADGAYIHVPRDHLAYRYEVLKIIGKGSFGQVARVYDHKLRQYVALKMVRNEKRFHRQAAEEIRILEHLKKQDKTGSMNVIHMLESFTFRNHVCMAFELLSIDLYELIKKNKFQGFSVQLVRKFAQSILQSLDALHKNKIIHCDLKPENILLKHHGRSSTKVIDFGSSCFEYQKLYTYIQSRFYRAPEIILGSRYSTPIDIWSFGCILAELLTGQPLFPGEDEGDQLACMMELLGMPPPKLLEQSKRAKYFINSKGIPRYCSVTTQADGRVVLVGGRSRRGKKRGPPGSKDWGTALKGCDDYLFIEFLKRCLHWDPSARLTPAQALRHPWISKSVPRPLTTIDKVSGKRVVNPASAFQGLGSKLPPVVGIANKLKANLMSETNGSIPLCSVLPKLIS

[5] = target: Dual specificity tyrosine-phosphorylation-regulated kinase 4 (Homo sapiens) (UniProt Q9NR20); test: Inhibition of human DYRK4 at 50 nM in presence of ATP by radiometric Hotspot kinase assay relative to control
OVCAR-4 = test: Antiproliferative activity against human OVCAR-4 cells assessed as growth inhibition; type: functional, cell-based
[6] = target: T2, Dual specificity tyrosine-phosphorylation-regulated kinase 2 (Homo sapiens) (UniProt Q92630); test: Inhibition of human DYRK2 at 50 nM in presence of ATP by radiometric Hotspot kinase assay relative to control
T2 sequence (whole entry): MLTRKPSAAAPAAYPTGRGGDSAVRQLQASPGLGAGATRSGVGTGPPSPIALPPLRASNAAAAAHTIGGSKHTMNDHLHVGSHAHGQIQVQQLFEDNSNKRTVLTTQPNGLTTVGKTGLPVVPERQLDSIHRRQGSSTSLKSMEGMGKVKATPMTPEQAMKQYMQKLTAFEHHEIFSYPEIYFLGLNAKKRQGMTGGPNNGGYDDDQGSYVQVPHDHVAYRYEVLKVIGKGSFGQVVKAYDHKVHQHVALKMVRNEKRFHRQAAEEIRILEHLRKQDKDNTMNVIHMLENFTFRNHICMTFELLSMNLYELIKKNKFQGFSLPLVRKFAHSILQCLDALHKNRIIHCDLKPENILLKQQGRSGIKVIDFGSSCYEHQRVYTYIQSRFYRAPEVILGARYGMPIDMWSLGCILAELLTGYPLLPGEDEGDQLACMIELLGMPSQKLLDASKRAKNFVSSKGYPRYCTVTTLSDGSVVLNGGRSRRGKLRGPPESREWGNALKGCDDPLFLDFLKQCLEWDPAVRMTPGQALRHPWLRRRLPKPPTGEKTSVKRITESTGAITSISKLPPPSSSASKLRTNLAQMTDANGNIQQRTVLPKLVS

[7] = target: Dual specificity protein kinase CLK2 (Homo sapiens) (UniProt P49760); test: Inhibition of human CLK2 at 50 nM in presence of ATP by radiometric Hotspot kinase assay relative to control
[8] = target: Dual specificity protein kinase CLK1 (Homo sapiens) (UniProt P49759); test: Inhibition of human CLK1 at 50 nM in presence of ATP by radiometric Hotspot kinase assay relative to control
[9] = target: T3, cGMP-dependent protein kinase 1 (Homo sapiens) (UniProt Q13976); details: dose 50.0 nM
T3 sequence (whole entry): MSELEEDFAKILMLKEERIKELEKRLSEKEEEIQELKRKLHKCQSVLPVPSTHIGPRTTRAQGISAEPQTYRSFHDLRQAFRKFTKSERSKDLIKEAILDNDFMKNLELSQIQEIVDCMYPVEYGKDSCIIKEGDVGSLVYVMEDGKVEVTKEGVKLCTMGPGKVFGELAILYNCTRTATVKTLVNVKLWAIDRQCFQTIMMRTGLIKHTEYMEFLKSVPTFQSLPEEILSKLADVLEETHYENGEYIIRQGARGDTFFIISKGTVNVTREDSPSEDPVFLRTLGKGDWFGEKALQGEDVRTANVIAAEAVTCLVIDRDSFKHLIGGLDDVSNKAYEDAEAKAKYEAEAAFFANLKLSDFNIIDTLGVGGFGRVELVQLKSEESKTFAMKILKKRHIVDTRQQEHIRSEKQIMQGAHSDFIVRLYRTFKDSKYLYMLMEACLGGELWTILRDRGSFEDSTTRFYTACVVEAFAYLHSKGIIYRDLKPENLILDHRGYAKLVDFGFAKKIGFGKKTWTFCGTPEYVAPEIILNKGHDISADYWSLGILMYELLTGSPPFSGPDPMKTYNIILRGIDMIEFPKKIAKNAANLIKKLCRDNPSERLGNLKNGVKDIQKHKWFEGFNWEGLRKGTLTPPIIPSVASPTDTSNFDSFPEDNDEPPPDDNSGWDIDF
Description: Inhibition of human PKG1alpha at 50 nM in presence of ATP by radiometric Hotspot kinase assay

[10] = target: Dual specificity tyrosine-phosphorylation-regulated kinase 1A (Homo sapiens) (UniProt Q13627); test: Inhibition of human DYRK1A at 50 nM in presence of ATP by radiometric Hotspot kinase assay relative to control
MDA-MB-468 = test: Antiproliferative activity against human MDA-MB-468 cells assessed as growth inhibition; type: functional, cell-based
[11] = target: Dual specificity protein kinase CLK4 (Homo sapiens) (UniProt Q9HAZ1); test: Inhibition of human CLK4 at 50 nM in presence of ATP by radiometric Hotspot kinase assay relative to control
SR = test: Antiproliferative activity against human SR cells assessed as growth inhibition; type: functional
LOX IMVI = test: Antiproliferative activity against human LOX IMVI cells assessed as growth inhibition; type: functional
Homo sapiens [12] = species: Homo sapiens; test: Induction of thermal stabilization of His-tagged DNAJB1-PKAcalpha (unknown origin) assessed as change in melting temperature incubated for 15 min by differential scanning fluorometric analysis
[13] = target: cAMP-dependent protein kinase catalytic subunit beta (Homo sapiens) (UniProt P22694); test: Inhibition of human PKAbeta at 50 nM in presence of ATP by radiometric Hotspot kinase assay
[14] = target: Dual specificity protein kinase CLK3 (Homo sapiens) (UniProt P49761); test: Inhibition of human CLK3 at 50 nM in presence of ATP by radiometric Hotspot kinase assay relative to control
[15] = Inhibition of DNAJB1-PKAcalpha (unknown origin) overexpressed in mouse NIH/3T3 cells assessed as inhibition of CREB phosphorylation at Ser133 residue preincubated for 30 mins followed by forskolin addition and measured after 30 mins by fluorescence based multilabel reader analysis; type: cell-based; details: NIH3T3
MOLT-4 = test: Antiproliferative activity against human MOLT-4 cells assessed as growth inhibition; type: functional
[16] = target: cAMP-dependent protein kinase catalytic subunit alpha (Homo sapiens) (UniProt P17612); details: dose 50.0 nM
Description: Inhibition of human PKAalpha at 50 nM in presence of ATP by radiometric Hotspot kinase assay relative to control

Albumin = Albumin (Homo sapiens, UniProt P02768); test: Binding affinity to human serum albumin assessed as protein binding at 10 uM by equilibrium dialysis technique relative to control; type: ADME; details: isolated protein
Chain of Albumin (P02768 whole entry): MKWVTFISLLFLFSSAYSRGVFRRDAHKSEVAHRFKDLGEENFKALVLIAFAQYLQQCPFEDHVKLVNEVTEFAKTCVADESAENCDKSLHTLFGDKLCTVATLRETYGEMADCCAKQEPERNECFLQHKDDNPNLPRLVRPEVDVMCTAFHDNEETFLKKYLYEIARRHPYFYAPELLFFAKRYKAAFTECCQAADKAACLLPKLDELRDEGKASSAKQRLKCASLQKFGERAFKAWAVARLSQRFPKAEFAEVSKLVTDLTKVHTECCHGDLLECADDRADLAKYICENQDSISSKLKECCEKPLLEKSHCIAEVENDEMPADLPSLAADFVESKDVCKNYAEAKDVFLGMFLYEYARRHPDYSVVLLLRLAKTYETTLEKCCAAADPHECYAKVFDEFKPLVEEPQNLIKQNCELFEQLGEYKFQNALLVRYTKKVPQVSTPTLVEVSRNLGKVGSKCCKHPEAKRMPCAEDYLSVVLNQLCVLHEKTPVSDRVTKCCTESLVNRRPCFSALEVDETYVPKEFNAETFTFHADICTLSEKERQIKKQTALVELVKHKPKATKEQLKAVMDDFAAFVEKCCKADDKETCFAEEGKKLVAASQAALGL

Chain of Dual specificity protein kinase CLK1 (Homo sapiens) (P49759 whole entry, looked up): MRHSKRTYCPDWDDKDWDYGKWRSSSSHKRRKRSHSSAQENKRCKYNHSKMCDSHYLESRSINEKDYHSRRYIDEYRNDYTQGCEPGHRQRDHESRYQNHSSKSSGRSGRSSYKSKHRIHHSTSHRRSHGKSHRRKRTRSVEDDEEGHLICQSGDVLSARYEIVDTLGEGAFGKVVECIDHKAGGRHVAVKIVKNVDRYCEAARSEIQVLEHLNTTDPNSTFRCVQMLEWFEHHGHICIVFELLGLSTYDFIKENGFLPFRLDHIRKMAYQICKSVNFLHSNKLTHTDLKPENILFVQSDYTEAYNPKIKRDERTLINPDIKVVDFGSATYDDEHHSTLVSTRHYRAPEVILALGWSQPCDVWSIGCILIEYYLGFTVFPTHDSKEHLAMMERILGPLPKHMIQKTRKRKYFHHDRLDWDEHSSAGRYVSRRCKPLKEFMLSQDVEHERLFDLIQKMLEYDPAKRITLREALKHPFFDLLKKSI
Chain of Dual specificity protein kinase CLK2 (Homo sapiens) (P49760 whole entry, looked up): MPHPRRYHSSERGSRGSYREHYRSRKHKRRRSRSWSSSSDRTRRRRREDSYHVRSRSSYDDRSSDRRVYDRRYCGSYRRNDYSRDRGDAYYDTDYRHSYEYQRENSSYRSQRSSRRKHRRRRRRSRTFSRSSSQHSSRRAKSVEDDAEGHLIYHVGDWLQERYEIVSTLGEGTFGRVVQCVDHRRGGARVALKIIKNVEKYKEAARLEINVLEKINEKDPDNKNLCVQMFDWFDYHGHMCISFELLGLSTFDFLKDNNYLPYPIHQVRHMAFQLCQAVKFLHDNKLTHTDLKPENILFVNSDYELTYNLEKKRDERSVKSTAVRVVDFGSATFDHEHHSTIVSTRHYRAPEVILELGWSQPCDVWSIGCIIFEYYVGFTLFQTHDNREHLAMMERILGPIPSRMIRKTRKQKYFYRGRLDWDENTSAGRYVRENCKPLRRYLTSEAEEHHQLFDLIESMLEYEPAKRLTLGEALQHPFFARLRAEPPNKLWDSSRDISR
Chain of Dual specificity tyrosine-phosphorylation-regulated kinase 1B (Homo sapiens) (Q9Y463 whole entry, looked up): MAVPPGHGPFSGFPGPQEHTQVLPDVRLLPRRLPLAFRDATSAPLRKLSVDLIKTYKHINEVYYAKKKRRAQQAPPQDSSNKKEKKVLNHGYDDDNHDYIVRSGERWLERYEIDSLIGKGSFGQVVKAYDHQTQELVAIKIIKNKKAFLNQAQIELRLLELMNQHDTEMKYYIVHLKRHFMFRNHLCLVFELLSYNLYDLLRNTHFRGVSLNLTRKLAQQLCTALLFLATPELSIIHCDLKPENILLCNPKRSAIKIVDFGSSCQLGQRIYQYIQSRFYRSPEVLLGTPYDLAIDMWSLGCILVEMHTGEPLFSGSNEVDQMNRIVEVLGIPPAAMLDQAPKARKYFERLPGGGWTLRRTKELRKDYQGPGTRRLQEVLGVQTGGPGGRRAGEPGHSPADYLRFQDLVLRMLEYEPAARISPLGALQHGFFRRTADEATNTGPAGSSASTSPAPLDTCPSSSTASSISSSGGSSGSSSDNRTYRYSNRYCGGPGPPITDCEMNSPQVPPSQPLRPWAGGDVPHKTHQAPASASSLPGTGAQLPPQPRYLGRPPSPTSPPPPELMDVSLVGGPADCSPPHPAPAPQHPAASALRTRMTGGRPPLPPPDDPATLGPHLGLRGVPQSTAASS
Chain of Dual specificity protein kinase CLK3 (Homo sapiens) (P49761 whole entry, looked up): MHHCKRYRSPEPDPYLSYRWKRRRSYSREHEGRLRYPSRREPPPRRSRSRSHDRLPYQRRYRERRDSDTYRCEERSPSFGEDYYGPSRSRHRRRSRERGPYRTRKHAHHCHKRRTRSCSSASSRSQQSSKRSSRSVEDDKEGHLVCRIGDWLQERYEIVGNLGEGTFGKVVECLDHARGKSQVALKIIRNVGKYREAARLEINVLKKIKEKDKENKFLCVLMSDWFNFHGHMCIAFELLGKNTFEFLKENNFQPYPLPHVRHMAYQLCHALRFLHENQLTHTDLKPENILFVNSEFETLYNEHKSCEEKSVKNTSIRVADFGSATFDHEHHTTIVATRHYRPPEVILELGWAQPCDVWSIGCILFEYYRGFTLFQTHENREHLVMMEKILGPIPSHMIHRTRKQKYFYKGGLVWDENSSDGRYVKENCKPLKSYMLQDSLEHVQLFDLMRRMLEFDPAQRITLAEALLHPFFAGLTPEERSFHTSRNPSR
Chain of Dual specificity protein kinase CLK4 (Homo sapiens) (Q9HAZ1 whole entry, looked up): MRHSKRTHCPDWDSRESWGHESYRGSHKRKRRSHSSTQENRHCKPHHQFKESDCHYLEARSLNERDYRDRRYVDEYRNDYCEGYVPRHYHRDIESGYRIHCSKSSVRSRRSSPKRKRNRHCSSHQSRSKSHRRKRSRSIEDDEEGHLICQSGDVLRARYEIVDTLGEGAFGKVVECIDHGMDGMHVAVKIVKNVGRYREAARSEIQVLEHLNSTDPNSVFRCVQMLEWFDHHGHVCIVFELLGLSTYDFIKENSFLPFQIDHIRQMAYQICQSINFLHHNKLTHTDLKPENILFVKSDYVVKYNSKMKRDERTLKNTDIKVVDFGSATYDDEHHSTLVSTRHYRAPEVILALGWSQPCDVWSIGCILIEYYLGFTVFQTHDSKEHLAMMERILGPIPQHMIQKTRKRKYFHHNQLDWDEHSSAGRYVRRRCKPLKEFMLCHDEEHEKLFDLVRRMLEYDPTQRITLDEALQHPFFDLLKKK
Chain of Dual specificity tyrosine-phosphorylation-regulated kinase 4 (Homo sapiens) (Q9NR20 whole entry): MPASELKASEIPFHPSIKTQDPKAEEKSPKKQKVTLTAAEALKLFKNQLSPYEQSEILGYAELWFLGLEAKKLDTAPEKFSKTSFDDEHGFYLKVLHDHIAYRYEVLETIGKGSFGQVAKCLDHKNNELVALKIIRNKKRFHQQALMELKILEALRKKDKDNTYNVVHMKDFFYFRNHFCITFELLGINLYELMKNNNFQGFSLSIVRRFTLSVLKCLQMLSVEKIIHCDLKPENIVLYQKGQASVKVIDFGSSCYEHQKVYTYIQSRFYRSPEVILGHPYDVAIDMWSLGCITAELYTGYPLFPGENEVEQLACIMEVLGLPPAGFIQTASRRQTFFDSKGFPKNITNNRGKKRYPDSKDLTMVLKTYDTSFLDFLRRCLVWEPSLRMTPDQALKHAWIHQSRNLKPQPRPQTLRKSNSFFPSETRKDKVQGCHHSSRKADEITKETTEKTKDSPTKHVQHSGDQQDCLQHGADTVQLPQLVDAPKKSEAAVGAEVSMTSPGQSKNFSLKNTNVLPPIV

Compound	IC50 [2] [nM]	Activity (NCI/ADR-RES)	Activity (OVCAR-4)	Activity (MDA-MB-468)	Activity (SR)	GI50 (LOX IMVI) [nM]	IC50 [15] [nM]	Activity (MOLT-4)	other results
Cn1cncc1N1C=C(c2ccnc3[nH]ccc23)SCC1	25	inactive	inactive	Active	Active	> 1000	5560	Active	Activity (Homo sapiens [1]): Dose-dependent-effect; inhibition [3]: < 50%; inhibition [4]: < 50%; inhibition [5]: < 50%; inhibition [6]: < 50%; inhibition [7]: < 50%; inhibition [8]: < 50%; inhibition [9]: Active; inhibition [10]: < 50%; inhibition [11]: < 50%; ΔTm (Homo sapiens [12]): 6 °C; inhibition [13]: Active; inhibition [14]: < 50%; inhibition [16]: 47%
Cc1cc(N2C=C(c3ccnc4[nH]ccc34)SCC2)ncn1	200	inactive	inactive	Active	Active	> 1000		Active	
C[C@@H]1C[C@@H](N)CN(C(=O)C2=CN(c3ncnc4[nH]ccc34)CCS2)C1	6	inactive	inactive	Active	Active	> 1000	2700	Active	
Cn1cc(C2=CN(c3ncnc4[nH]ccc34)CCS2)cn1	440	inactive	inactive	Active	Active	> 1000		Active	
Cn1cnc(Br)c1C1=CN(c2ncnc3[nH]cnc23)CCS1		inactive	inactive	Active	Active	> 1000		Active	Activity (Homo sapiens [1]): Dose-dependent-effect; ΔTm (Homo sapiens [12]): 3.1 °C
C[C@H]1CCN(C(=O)C2=CN(c3ncnc4[nH]ccc34)CCS2)C[C@@H]1N	7						2500		
Cn1cncc1C1=CN(c2ncnc3[nH]cnc23)CCS1									PB (Albumin): 98%; inhibition [7]: Active; inhibition [8]: Active; inhibition [13]: Active
C1=C(c2ccnc3[nH]ccc23)SCCN1c1ccncn1	6.3	inactive	inactive	Active	Active	> 1000	282	Active	Activity (Homo sapiens [1]): Dose-dependent-effect; ΔTm (Homo sapiens [12]): 7.9 °C
C1=C(c2ccnc3[nH]ccc23)SCCN1c1ncnc2occc12	19	inactive	inactive	Active	Active	> 1000		Active	
C[C@@]1(N)CCCN(C(=O)C2=CN(c3ncnc4[nH]ccc34)CCS2)C1		inactive	inactive	Active	Active	> 1000	4400	Active	
Cc1c[nH]c2ncnc(N3C=C(c4cncn4C)SCC3)c12	92	inactive	inactive	Active	Active	> 1000	8200	Active	
C[C@@]1(N)CCCN(C(=O)C2=CN(c3ccnc4[nH]ccc34)CCS2)C1	16						3600		
C1=C(c2ccnc3[nH]ccc23)SCCN1c1ncnc2sccc12	310	inactive	inactive	Active	Active	> 1000		Active	
C1=C(c2ccnc3[nH]ccc23)SCCN1c1ncnc2[nH]ccc12		inactive	inactive	Active	Active	> 1000		Active	inhibition [3]: < 50%; inhibition [4]: < 50%; inhibition [5]: < 50%; inhibition [6]: < 50%; inhibition [7]: < 50%; inhibition [8]: < 50%; inhibition [9]: Active; inhibition [10]: < 50%; inhibition [11]: < 50%; inhibition [13]: Active; inhibition [14]: < 50%
Cn1cncc1C1=CN(c2ccnc3[nH]ccc23)CCS1	860	inactive	inactive	Active	Active	> 1000		Active	inhibition [8]: Active; inhibition [9]: Active; inhibition [16]: 1.7%
Cn1cncc1C1=CN(c2ncnc3[nH]ccc23)CCS1	150	inactive	inactive	Active	Active	> 1000	> 10000	Active	
